Measured values as given in US9233107B2, “Compositions and methods for the treatment of progressive multifocal leukoencephalopathy (PML)” (Biogen MA Inc., priority 2007, dated 2016).
Where two headings read alike, the source gives them in different places.

Experiments:
JCV = experiment: Anti-JCV activity of structural analogs (Tables 4 and 5); type: cell-based, JC polyomavirus (JCV)
JCV strain Mad1/SVEΔ = experiment: microbe, parasite or virus in culture; type: cell-based, JC polyomavirus (JCV); settings: for % Inhibition (total #JCV+) @10 uM: SV40 transformed glial cells, Mad-1/SVEΔ JCV; for % Inhibition (% JCV+) @10 uM: infection rate, JCV+ cells normalised to total cells
Protocol: (§1) SV40 transformed glial cells were seeded in 10% FBS media. The cells were seeded at 2000 cells per well in 75 μl of media per well. On day 2, the media was removed and replaced by 35 μl of a 1× concentrated drug aliquot combined with a 100× diluted JCV Turbo aliquot in 35 μl of 2% FBS media (JCV Turbo is a hybrid Mad-1/SVEΔ virus constructed by insertion of the regulatory region of SV40 into the regulatory region of the Mad-1 strain of JCV (Mad-1/SVE), Vacante et al., Virology 1989, 170: 353-361). The cells were incubated for an hour, after which another 65 uL aliquot of 1× concentrated drug in 2% FBS was added. On day 5 the cells were stained with DAPI (for total cell number) and with a mouse monoclonal antibody against SV40 VP1, which cross reacts with the JCV VP1 protein. […] The information is tabulated as % inhibition (as measured by the number and percentage of JCV positive cells).
(§2) JCV Infectivity Assay: SVG-A cells were seeded at 2,000 cells/well/0.075 ml of culture media in 96 flat-bottom well plate (Corning, N.Y.). The next day compounds were prepared in assay medium (2% heat-inactivated fetal bovine serum, 4 mM L-glutamine, 1×MEM). A master viral plate was prepared by mixing equal volumes of [2×] compound and [2×] diluted virus for the final 1× concentration of the compound and the virus. The plate containing cells was gently inverted and shaken to remove media. From the master plate, 0.035 ml compound/virus was added to designated wells. The cells were incubated with the compound/virus mixture for 60 minutes in a humidified 37° C. CO2 incubator. At that time final concentration of the drug in media was added to designated wells to bring the final volume up to 0.1 ml/well. The plates were incubated for an additional three days, the cells were then washed once with 1×PBS, and fixed in 2% paraformaldehyde/1×PBS for 30 minutes at room temperature. The fixative was removed and the cells were solubilized with 0.5% Triton X100 in PBS for an additional 30 minutes. Infection by Mad-1/SVEΔ virus was visualized by staining with PAB597, a monoclonal antibody against the major capsid protein VP1, the cells were incubated with 0.05 ml of PAB597 (2 μg/ml in 1×PBS) for 60 minutes at 37° C. Following a wash step with 1×PBS, primary antibody was detected with an Alexa-Fluor 488-labeled goat anti-mouse secondary antibody at 1:100 dilution in 1×PBS, cells were counterstained with DAPI at 1 μg/ml (0.05 ml/well) for 30 minutes at 37° C. Cells were washed with 1×PBS and 0.1 ml 1×PBS was added to cells. Field images of each well were acquired and analyzed using the Cellomics ArrayScan (Thermo Scientific Inc, Waltham, Mass.) using the Target Activation software. […] The cells are seeded at 4,000 cells/well/0.075 ml of culture media in 96 flat-bottom well plate (Corning). The culture media is used for the infection. The length of the infection is six to ten days (instead of the three days for SVG-A cells).
Calculations: The rate of JCV infection was calculated by normalizing the number of JCV infected cells by the total number of nucleated cells as % JCV^+ cells=((total # VP1^+ cells)/(total # DAPI^+ cells))*100%. The % of viral inhibition by a compound was calculated using a JCV infection rate instead of using total number of JCV infected cells (e.g., VP1^+ cells).

SVG-A cells = experiment: Total cell number (DAPI+ events) / cytotoxicity in the JCV infectivity assay; settings: for inhibition at 10 µM: Homo sapiens, SVG-A, read-out: % Inhibition total Cell Number @10 uM; for % Inhibition total Cell Number @10 uM: cytotoxicity, DAPI count
Protocol: as §1, §2
The primary assay employed an SVG-A cell line and JCV Mad1/SVEΔ viral strain.

[1] = published PK data; cited from earlier work
[2] = Table 4, mefloquine functional fingerprint in silico screen compounds
[3] = JC polyomavirus, Glial cell, read-out: % Inhibition (total #JCV+) @10 uM
[4] = JC polyomavirus, SVG-A, read-out: % Inhibition (% JCV+) @10 uM

In the case of `CC(=O)OC(C)C1CCC2C3CC(O)C4CC(O)CCC4(C)C3CCC12C` (stereo not drawn) [5-BETA-PREGNAN-3-ALPHA, 6-ALPHA, 20-BETA-TRIOL 20-ACETATE], the anti-JCV activity (JCV; Table 5, fusidic acid analogs) is reported as “Yes”.
With `CC[C@@H](CO)Nc1nc(NCc2ccccc2)c2ncn(C(C)C)c2n1` (single isomer, unassigned) [ROSCOVITINE, (S)-ISOMER] the anti-JCV activity (JCV; [2]) was “Yes”.
With `CC(=O)OC(C)C1CCC2C3CCC4=CC(O)CCC4(C)C3CCC12C` (stereo not drawn) [4-PREGNEN-3-BETA, 20-BETA-DIOL 20-ACETATE] the anti-JCV activity (JCV; Table 5, fusidic acid analogs) was “Yes”.
With `CC(=O)OC1CC2CC(O)CCC2(C)C2CC(OC(C)=O)C3(C)C(C(C)CC(=O)O)CCC3C12` (stereo not drawn) [23-NOR-5-BETA-CHOLANIC ACID-3-ALPHA, 7-ALPHA, 12-ALPHA-TRIOL 7,12-DIACETATE] the anti-JCV activity (JCV; Table 5, fusidic acid analogs) was “No”.
For `CC(=O)OC(C)C1CCC2C3CC(O)C4CC(O)CCC4(C)C3CCC12C` (stereo not drawn) [5-BETA-PREGNAN-3-ALPHA, 6-ALPHA, 20-ALPHA-TRIOL 20-ACETATE], the anti-JCV activity (JCV; Table 5, fusidic acid analogs) was “No”.
Work on `CC1=C(/C=C/C(C)=C/C=C/C(C)=C\C(=O)O)C(C)(C)CCC1` [ISOTRETINOIN] yielded an inhibition at 10 µM (JCV strain Mad1/SVEΔ; [3]) of 39%, an IC50 (JCV strain Mad1/SVEΔ; JC polyomavirus, SVG-A) of 4.4 µM and an inhibition at 10 µM (JCV strain Mad1/SVEΔ; [4]) of 28%. For the same molecule, the inhibition at 10 µM (SVG-A cells) was 15% and the “plasma Cmax” value [1] was 1100 ng/mL.
With `Nc1nc2c(ncn2[C@@H]2O[C@H](CO)[C@@H](O)[C@H]2O)c(=O)[nH]1` [GUANOSINE] the anti-JCV activity (JCV; [2]) was “No”.
With `Nc1nccc2c1ncn2[C@@H]1O[C@H](CO)[C@@H](O)[C@H]1O` [3-DEAZAADENOSINE] the anti-JCV activity (JCV; [2]) was “Yes”.
For `CC(=O)O[C@H]1CC[C@H]2[C@@H]3CCC4=C[C@@H](O)CC[C@@H]4[C@H]3CC[C@]12C` [4-ESTREN-3-BETA, 17-BETA-DIOL 17-ACETATE], the anti-JCV activity (JCV; Table 5, fusidic acid analogs) was “Yes”.
In the case of `Clc1ccc(COC(Cn2ccnc2)c2ccc(Cl)cc2Cl)c(Cl)c1` (stereo not drawn) [MICONAZOLE NITRATE], the inhibition at 10 µM (JCV strain Mad1/SVEΔ; [3]) is reported as 46%, the inhibition at 10 µM (JCV strain Mad1/SVEΔ; [4]) is reported as 42% and the inhibition at 10 µM (SVG-A cells) is reported as 7%. The CC50 (SVG-A cells; read-out: TC50, inhibition of total cell numbers by 50%) was 22.9 µM and the “plasma Cmax” value [1] was 10 ng/mL.
In the case of `Nc1ncnc2c1nc(Cl)n2[C@@H]1O[C@H](CO)[C@@H](O)[C@H]1O` [8-CHLOROADENOSINE], the anti-JCV activity (JCV; [2]) is reported as “Yes”.
In the case of `Nc1ncnc2c1ncn2[C@@H]1O[C@H](CO)[C@@H](O)[C@H]1O` [ADENOSINE], the anti-JCV activity (JCV; [2]) is reported as “No”.
Molecule `CC(=O)O[C@H]1C[C@@]2(C)[C@@H](C[C@@H](O)[C@H]3[C@@]4(C)CC[C@@H](O)[C@@H](C)[C@@H]4CC[C@@]32C)/C1=C(\CCC=C(C)C)C(=O)O` [FUSIDIC ACID] has an inhibition at 10 µM (JCV strain Mad1/SVEΔ; [3]) of 39%, an IC50 (JCV strain Mad1/SVEΔ; JC polyomavirus, SVG-A) of 8.6 µM and an inhibition at 10 µM (JCV strain Mad1/SVEΔ; [4]) of 40%. The inhibition at 10 µM (SVG-A cells) was -2% and the “plasma Cmax” value [1] was 10000 to 90000 ng/mL.
`COc1ccc(C(=O)c2ccccc2O)c(O)c1` [DIOXYBENZONE, 2,2′-Dihydroxy-4-methoxybenzophenone] showed an inhibition at 10 µM (JCV strain Mad1/SVEΔ; [3]) of 55%, an inhibition at 10 µM (JCV strain Mad1/SVEΔ; [4]) of 49% and an inhibition at 10 µM (SVG-A cells) of 11%.
For `O=c1cc(-c2ccc(O)cc2)oc2ccc(O)cc12` [6,4′-DIHYDROXYFLAVONE], the inhibition at 10 µM (JCV strain Mad1/SVEΔ; [3]) was 18%, the inhibition at 10 µM (JCV strain Mad1/SVEΔ; [4]) was 22% and the inhibition at 10 µM (SVG-A cells) was -5%.
With `Nc1nc(OCC2CCCCC2)c2[nH]cnc2n1` [O6-Cyclohexylmethylguanine] the anti-JCV activity (JCV; [2]) was “Yes”.
In the case of `O=c1cc(-c2ccccc2)oc2cc(O)cc(O)c12` [CHRYSIN], the inhibition at 10 µM (JCV strain Mad1/SVEΔ; [3]) is reported as 18%, the inhibition at 10 µM (JCV strain Mad1/SVEΔ; [4]) is reported as 26% and the inhibition at 10 µM (SVG-A cells) is reported as -12%.
With `C[C@H](N)CO` [L-ALANINOL] the “% Inhibition (total #JCV+) @10 uM” value (JCV strain Mad1/SVEΔ) was 13%, the “% Inhibition (% JCV+) @10 uM” value (JCV strain Mad1/SVEΔ) was 31% and the “% Inhibition total Cell Number @10 uM” value (SVG-A cells) was −23%.
With `O=C(O)Cc1ccccc1Nc1c(Cl)cccc1Cl` [DICLOFENAC SODIUM] the inhibition at 10 µM (JCV strain Mad1/SVEΔ; [3]) was 44%, the IC50 (JCV strain Mad1/SVEΔ; JC polyomavirus, SVG-A) was 8.3 µM and the inhibition at 10 µM (JCV strain Mad1/SVEΔ; [4]) was 31%. It also gave an inhibition at 10 µM (SVG-A cells) of 18% and a CC50 (SVG-A cells; human, 3 days) of 30.5 µM.
Work on `CN1CCCN=C1/C=C/c1cccs1` [PYRANTEL PAMOATE] yielded an inhibition at 10 µM (JCV strain Mad1/SVEΔ; [3]) of 48%, an inhibition at 10 µM (JCV strain Mad1/SVEΔ; [4]) of 42% and an inhibition at 10 µM (SVG-A cells) of 12%.
In the case of DEHYDROABIETAMIDE, the “% Inhibition (total #JCV+) @10 uM” value (JCV strain Mad1/SVEΔ) is reported as 40%, the “% Inhibition (% JCV+) @10 uM” value (JCV strain Mad1/SVEΔ) is reported as 33% and the IC50 (JCV strain Mad1/SVEΔ; anti-JCV, inhibition of % JCV infected cells by 50%, full dose response, read-out: IC50) is reported as 13 µM. For the same molecule, the CC50 (SVG-A cells) was > 40 µM and the “% Inhibition total Cell Number @10 uM” value (SVG-A cells) was 11%.
In the case of `COc1cc(OC)c(C(C)=O)c(OC)c1` [METHYLXANTHOXYLIN], the “% Inhibition (total #JCV+) @10 uM” value (JCV strain Mad1/SVEΔ) is reported as 33%, the “% Inhibition (% JCV+) @10 uM” value (JCV strain Mad1/SVEΔ) is reported as 30% and the “% Inhibition total Cell Number @10 uM” value (SVG-A cells) is reported as 5%.
